For one assay, the target named is T1, V600E full-length B-Raf (Homo sapiens, UniProt P15056, V600E).
T1 construct: 1 μM FSBA-MEK and 20 nM V600E full-length B-Raf; made in house; host or cells: Sf9 insect cells (baculovirus)
The experiment in a line: B-Raf IC50 assay (Example A). The class given is biochemical. The method, boiled down: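 Sf9-expressed full-length V600E B-Raf (20 nM) phosphorylated 1 µM FSBA-modified wild-type MEK with 4 µM ATP plus [γ-33P]ATP in 25 mM Pipes pH 7.2, 100 mM KCl, 10 mM MgCl2. Enzyme and substrate were preincubated 15 min, and the reaction ran 60 min at 22 °C. It was TCA-quenched and filter-captured, and incorporated radioactivity was scintillation-counted.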

The subject of assay [1] is basal ERK1/2 phosphorylation in Malme-3M cells. Briefly: Cellular ERK 1/2 phosphorylation assay (Example A1). It counts as cell-based. The settings on record: Homo sapiens, 1 hour incubation, pERK normalized to total ERK, read-out: P-ERK Malme3-M IC50. In short, it runs like this:
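Malme-3M cells (24,000/well, RPMI-1640 with 10% FBS) were treated with compounds for 1 h at 37 °C, 1% DMSO final. Fixed, methanol-permeabilized cells were immunostained for pERK and total ERK and read by infrared fluorescence. pERK signal was normalized to total ERK.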

The subject of assay [2] is subcutaneous LOX xenografts. The experiment in a line: Tumor growth inhibition (LOX), Example A2. Conditions: female nude mice, LOX xenograft; for Tumor Volume (mm^3) Day 1: 10 mg/kg PO on days 1-4, Day 1; for Tumor Volume (mm^3) Day 3: 10 mg/kg PO on days 1-4, Day 3; for Tumor Volume (mm^3) Day 5: 10 mg/kg PO on days 1-4, Day 5. The class given is in vivo. As for the experimental part: (§1) Female nude mice were implanted subcutaneously on the right flank with approximately 3.5×10^6 LOX cells in 100 μL PBS. Five to seven days later, tumors were measured and mice were randomized into groups of six with average tumor volume in each group of approximately 200 mm^3. Examples 3 and 28 were dissolved in 80% PEG400/20% ethanol before dosing, and administered PO at a volume of 5 mL/kg. Dosing was vehicle alone on days 1, 2, 3 and 4; and Examples 3 and 28 at 10 mg/kg on days 1, 2, 3 and 4. Animal weights and tumor volumes were measured using electronic calipers on day 5. Tumor volume was calculated using the formula: volume=(width2×length)/2.

Assay [3] concerns subcutaneous LOX xenografts. The experiment in a line: Tumor growth inhibition (LOX), Example A3. The class given is in vivo. Conditions: female nude mice, LOX xenograft. How it is done: as §1, with “mm^3. Example 23 was” for “mm^3. Examples 3 and 28 were”, “and Example 23” for “and Examples 3 and 28”, “at 5” for “at 10”, “formula: volume=(width^2×length)/2.” for “formula: volume=(width2×length)/2.”

Setting [4] is: B-Raf V600E assay of Example A, read-out: IC50.
The mark [5] stands for this setting: [γ-33P]ATP incorporation into FSBA-MEK, 4 μM ATP, read-out: BRAF V600E IC50.

Structures are written as SMILES. Read-outs that look alike come from different tables or passages of the source. Bounds are passed on as bounds.

The record followed here is patent US20130018033A1, “RAF INHIBITOR COMPOUNDS AND METHODS OF USE THEREOF” (ARRAY BIOPHARMA INC., priority 2009, published 2013).

T1 sequence (P15056 whole entry V600E): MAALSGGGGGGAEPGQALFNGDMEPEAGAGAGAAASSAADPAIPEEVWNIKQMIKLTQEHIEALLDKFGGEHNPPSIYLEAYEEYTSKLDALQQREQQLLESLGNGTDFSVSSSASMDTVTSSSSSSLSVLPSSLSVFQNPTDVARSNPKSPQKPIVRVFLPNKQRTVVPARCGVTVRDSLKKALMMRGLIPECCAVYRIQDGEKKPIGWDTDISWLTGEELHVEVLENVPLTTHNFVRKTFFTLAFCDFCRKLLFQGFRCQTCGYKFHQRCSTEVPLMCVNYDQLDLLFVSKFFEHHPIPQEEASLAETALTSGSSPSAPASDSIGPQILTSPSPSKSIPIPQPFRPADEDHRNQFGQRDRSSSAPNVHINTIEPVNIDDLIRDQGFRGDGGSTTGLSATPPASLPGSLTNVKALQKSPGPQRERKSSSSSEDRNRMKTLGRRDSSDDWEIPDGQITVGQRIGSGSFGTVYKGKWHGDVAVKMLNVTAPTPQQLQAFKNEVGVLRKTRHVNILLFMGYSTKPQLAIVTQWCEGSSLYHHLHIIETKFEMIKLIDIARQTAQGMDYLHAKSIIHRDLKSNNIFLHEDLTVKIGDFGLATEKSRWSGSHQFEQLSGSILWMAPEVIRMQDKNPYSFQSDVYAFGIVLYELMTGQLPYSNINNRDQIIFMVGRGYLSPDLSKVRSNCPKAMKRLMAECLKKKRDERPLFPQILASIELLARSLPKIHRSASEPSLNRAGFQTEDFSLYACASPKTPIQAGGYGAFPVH

Regarding `CCCS(=O)(=O)Nc1ccc(F)c(NC(=O)c2cccc3c(N)ncnc23)c1Cl` [Example 3, 4-Amino-quinazoline-8-carboxylic acid [2-chloro-6-fluoro-3-(propane-1-sulfonylamino)-phenyl]-amide], the IC50 (usually the midpoint of a concentration-inhibition curve) on V600E full-length B-Raf (setting [4]) was less than 0.1 µM. This compound also registered an IC50 against V600E full-length B-Raf (BRAF V600E IC50 (μM), [γ-33P]ATP incorporation into FSBA-MEK, 4 μM ATP) of 0.00053 µM. Moreover, the IC50 in assay [1] amounted to 7.23 nM. Moreover, in assay [2], the “Tumor Volume (mm^3) Day 1” value was determined as 190.33 mm^3, the “Tumor Volume (mm^3) Day 3” value stood at 151.33 mm^3 and the “Tumor Volume (mm^3) Day 5” value was 118.41 mm^3.

Consider `Nc1ncnc2c(C(=O)Nc3c(F)ccc(NS(=O)(=O)CCCF)c3F)cccc12` [Example 23, 4-Amino-quinazoline-8-carboxylic acid [2,6-difluoro-3-(3-fluoro-propane-1-sulfonylamino)-phenyl]-amide], for which the half-maximal inhibitory concentration (IC50) on V600E full-length B-Raf (setting [4]) is less than 0.1 µM; at V600E full-length B-Raf (setting [5]) it was 0.00028 µM; in assay [1] it was 3.89 nM. In assay [3] (5 mg/kg PO on days 1-4, Day 1), the “Tumor Volume (mm^3) Day 1” value was 221.32 mm^3. In assay [3] (5 mg/kg PO on days 1-4, Day 3), the “Tumor Volume (mm^3) Day 3” value is on record as 280.81 mm^3. In addition, the “Tumor Volume (mm^3) Day 5” value in assay [3] (5 mg/kg PO on days 1-4, Day 5) amounted to 157.52 mm^3.

Take `CCCS(=O)(=O)Nc1ccc(F)c(NC(=O)c2cccc3c(N)ncnc23)c1C#N` [Example 28, 4-Amino-quinazoline-8-carboxylic acid [2-cyano-6-fluoro-3-(propane-1-sulfonylamino)-phenyl]-amide]: the IC50 at V600E full-length B-Raf (setting [4]) is less than 0.1 µM; at V600E full-length B-Raf (setting [5]), 0.00011 µM; in assay [1], 14.4 nM. Also, the “Tumor Volume (mm^3) Day 1” value in assay [2] is recorded as 190.71 mm^3. In addition, the “Tumor Volume (mm^3) Day 3” value in assay [2] was determined as 176.38 mm^3. Also, the “Tumor Volume (mm^3) Day 5” value in assay [2] came to 219.31 mm^3.

Regarding `CCCS(=O)(=O)Nc1ccc(C#N)c(NC(=O)c2ccnc3c(N)ncnc23)c1F` [Example 69, 4-Amino-pyrido[3,2-d]pyrimidine-8-carboxylic acid [6-cyano-2-fluoro-3-(propane-1-sulfonylamino)-phenyl]-amide], the concentration for half-maximal inhibition (IC50) at V600E full-length B-Raf (setting [4]) is less than 0.1 µM; on V600E full-length B-Raf (setting [5]), 0.0195 µM; in assay [1], 306 nM.

As to `CCCS(=O)(=O)Nc1ccc(F)c(NC(=O)c2cc(C)cc3c(N)ncnc23)c1F` [Example 70, 4-Amino-6-methyl-quinazoline-8-carboxylic acid [2,6-difluoro-3-(propane-1-sulfonylamino)-phenyl]-amide], the IC50 at V600E full-length B-Raf (setting [4]) was less than 0.1 µM; on V600E full-length B-Raf (setting [5]), 0.0014 µM; in assay [1], 8.59 nM.

Take `CCCS(=O)(=O)Nc1ccc(F)c(NC(=O)c2cc(C)cc3c(N)ncnc23)c1Cl` [Example 77, 4-Amino-6-methyl-quinazoline-8-carboxylic acid [2-chloro-6-fluoro-3-(propane-1-sulfonylamino)-phenyl]-amide]: the IC50 at V600E full-length B-Raf (setting [4]) is less than 0.1 µM; at V600E full-length B-Raf (setting [5]), 0.00045 µM; in assay [1] it was 7.83 nM.

Regarding `CCCS(=O)(=O)Nc1ccc(F)c(NC(=O)c2cc(F)cc3c(N)ncnc23)c1Cl` [Example 78, 4-Amino-6-fluoro-quinazoline-8-carboxylic acid [2-chloro-6-fluoro-3-(propane-1-sulfonylamino)-phenyl]-amide], the IC50 on V600E full-length B-Raf (setting [4]) was less than 0.1 µM; on V600E full-length B-Raf (setting [5]) it was 0.00049 µM; in assay [1], 15.7 nM.

Consider `CCCS(=O)(=O)Nc1ccc(F)c(NC(=O)c2cc(C)cc3cncnc23)c1F` [Example 79, 6-Methyl-quinazoline-8-carboxylic acid [2,6-difluoro-3-(propane-1-sulfonylamino)-phenyl]-amide], for which the IC50 was less than 0.1 µM on V600E full-length B-Raf (setting [4]), 0.0588 µM on V600E full-length B-Raf (setting [5]) and 254 nM in assay [1].
